The text below walks through data of patent US10829501B2 (BRISTOL-MYERS SQUIBB COMPANY, priority 2016, dated 2020).

Counter-ions that a name gives are not always drawn. Some results are limits rather than exact numbers.

By IC50 is commonly meant the concentration that gives 50% inhibition.

Chain of ROCK2 (O75116 whole entry, species assumed): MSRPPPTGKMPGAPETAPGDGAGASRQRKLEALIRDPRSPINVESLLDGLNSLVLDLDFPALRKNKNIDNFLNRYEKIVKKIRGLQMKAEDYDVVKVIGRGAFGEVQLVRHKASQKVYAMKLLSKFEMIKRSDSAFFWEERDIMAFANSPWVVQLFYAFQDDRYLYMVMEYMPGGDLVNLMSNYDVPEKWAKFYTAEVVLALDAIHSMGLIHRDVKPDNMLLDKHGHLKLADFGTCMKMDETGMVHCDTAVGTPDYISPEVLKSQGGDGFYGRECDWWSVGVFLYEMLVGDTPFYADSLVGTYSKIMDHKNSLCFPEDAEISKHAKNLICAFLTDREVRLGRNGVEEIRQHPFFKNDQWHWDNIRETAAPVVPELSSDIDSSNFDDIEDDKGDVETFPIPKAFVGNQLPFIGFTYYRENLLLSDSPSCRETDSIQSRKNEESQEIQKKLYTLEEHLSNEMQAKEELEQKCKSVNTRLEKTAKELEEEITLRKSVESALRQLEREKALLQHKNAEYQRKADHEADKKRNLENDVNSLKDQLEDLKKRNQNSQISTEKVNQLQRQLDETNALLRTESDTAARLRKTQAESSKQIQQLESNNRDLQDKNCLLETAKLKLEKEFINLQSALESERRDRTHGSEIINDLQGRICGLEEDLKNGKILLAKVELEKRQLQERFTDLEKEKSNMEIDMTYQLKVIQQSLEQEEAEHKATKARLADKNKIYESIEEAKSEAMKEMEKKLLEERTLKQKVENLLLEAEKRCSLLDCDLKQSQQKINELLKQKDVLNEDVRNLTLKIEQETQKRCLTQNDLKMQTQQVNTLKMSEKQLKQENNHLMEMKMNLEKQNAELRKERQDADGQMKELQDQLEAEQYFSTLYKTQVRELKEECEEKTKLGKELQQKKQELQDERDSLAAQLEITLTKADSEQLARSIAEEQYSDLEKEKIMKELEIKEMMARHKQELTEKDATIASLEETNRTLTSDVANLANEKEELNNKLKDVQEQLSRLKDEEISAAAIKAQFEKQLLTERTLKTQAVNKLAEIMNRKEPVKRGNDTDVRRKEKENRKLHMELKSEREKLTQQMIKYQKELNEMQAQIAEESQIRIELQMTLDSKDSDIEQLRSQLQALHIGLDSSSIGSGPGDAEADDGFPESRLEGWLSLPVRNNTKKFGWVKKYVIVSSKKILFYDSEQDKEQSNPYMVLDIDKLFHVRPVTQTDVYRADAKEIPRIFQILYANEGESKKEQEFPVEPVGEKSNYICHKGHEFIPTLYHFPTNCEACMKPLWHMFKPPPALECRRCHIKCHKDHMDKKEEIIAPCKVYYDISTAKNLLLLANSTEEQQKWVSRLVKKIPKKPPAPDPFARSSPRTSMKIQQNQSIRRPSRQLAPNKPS

One test has as its target ROCK2 (Homo sapiens, UniProt O75116). The test can be described thus: ROCK2 kinase inhibition assay (LABCHIP 3000 Reader, FITC peptide substrate).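 Further: rho kinase reaction read by separating phosphorylated from unphosphorylated peptide on chip, with inhibition of kinase activity computed per concentration across a dose-response series.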
Details: not given
Take `NC(=O)c1cccnc1O[C@H]1CC2(C[C@H](NC(=O)c3ccc(Cl)c(S(N)(=O)=O)c3)C2)C1` (stereo partly drawn) [Example 152, 2-(((aR)-6-(4-chloro-3-sulfamoylbenzamido)spiro[3.3]heptan-2-yl)oxy) nicotinamide, trifluoroacetate]: the IC50 lay in the range of 5 to 50 nM. `CC(C)(O)COc1ccc2c(C(=O)NC3CC4(C3)CC(Oc3cc(CCCN)ccc3C(N)=O)C4)cnn2c1` (stereo not shown) [Example 300, N-(6-(5-(3-aminopropyl)-2-carbamoylphenoxy)spiro[3.3]heptan-2-yl)-6-(2-hydroxy-2-methylpropoxy)pyrazolo[1,5-a]pyridine-3-carboxamide] registered an IC50 of less than 5 nM.

`NC(=O)c1cccnc1O[C@H]1CC2(C[C@H](NC(=O)c3cnc4cc(OCC(F)F)ccn34)C2)C1` (stereo partly drawn) [Example 331, N-((aR)-6-((3-carbamoylpyridin-2-yl)oxy)spiro[3.3]heptan-2-yl)-7-(2,2-difluoroethoxy)imidazo[1,2-a]pyridine-3-carboxamide] yielded an IC50 of 5 to 50 nM. On the same count and under the same terms, the result for `CC(F)(F)COc1ccc2c(C(=O)N[C@H]3CC4(C3)C[C@H](Oc3ncccc3C(N)=O)C4)cnn2c1C1CC1` (stereo partly drawn) [Example 309, N-((aR)-6-((3-carbamoylpyridin-2-yl)oxy)spiro[3.3]heptan-2-yl)-7-cyclopropyl-6-(2,2-difluoropropoxy)pyrazolo[1,5-a]pyridine-3-carboxamide] reads less than 5 nM. On the same count and under the same terms, the result for `CC(C)(O)COc1ccc2c(C(=O)NC3CC4(C3)CC(Oc3cc(-c5cc(CO)cc(CO)c5)ccc3C(N)=O)C4)cnn2c1` (stereo not shown) [Example 258, N-(6-((4-carbamoyl-3′,5′-bis(hydroxymethyl)-[1,1′-biphenyl]-3-yl)oxy)spiro[3.3]heptan-2-yl)-6-(2-hydroxy-2-methylpropoxy)pyrazolo[1,5-a]pyridine-3-carboxamide] reads less than 5 nM; that for `[H][C@]1(Oc2ncccc2C(N)=O)C[C@@]2(C[C@H](NC(=O)c3nnn4c(Cl)c(OCc5ccccc5)ccc34)C2)C1` (stereo partly drawn) [Example 373, 6-(benzyloxy)-N-((aR)-6-((3-carbamoylpyridin-2-yl)oxy)spiro[3.3]heptan-2-yl)-7-chloro-[1,2,3]triazolo[1,5-a]pyridine-3-carboxamide], 250 to 2500 nM; that for `Cc1nn(-c2cccc(-c3ccc(C(N)=O)c(OC4CC5(CC(NC(=O)c6cnn7cc(OCC(C)(C)O)ccc67)C5)C4)c3)c2)c(N)c1C#N` (stereo not shown) [Example 246, N-(6-((3′-(5-amino-4-cyano-3-methyl-1H-pyrazol-1-yl)-4-carbamoyl-[1,1′-biphenyl]-3-yl)oxy)spiro[3.3]heptan-2-yl)-6-(2-hydroxy-2-methylpropoxy)pyrazolo[1,5-a]pyridine-3-carboxamide], 5 to 50 nM. `Cc1ncc(-c2ccc3c(C(=O)NC4CC5(C4)CC(Oc4ncccc4C(N)=O)C5)nc(C(F)F)n3c2)s1` [Example 436, N-((aR)-6-((3-carbamoylpyridin-2-yl)oxy)spiro[3.3]heptan-2-yl)-3-(difluoromethyl)-6-(2-methylthiazol-5-yl)imidazo[1,5-a]pyridine-1-carboxamide] showed an IC50 of less than 5 nM.

In turn, `COCCOC(=O)Nc1ccc(-c2ccc(C(N)=O)c(OC3CC4(CC(NC(=O)c5cnn6cc(OCC(C)(C)O)ccc56)C4)C3)c2)cn1` (stereo not shown) [Example 233, 2-methoxyethyl (5-(4-carbamoyl-3-((6-(6-(2-hydroxy-2-methylpropoxy)pyrazolo[1,5-a]pyridine-3-carboxamido)spiro[3.3]heptan-2-yl)oxy)phenyl)pyridin-2-yl)carbamate] yielded an IC50 of 5 to 50 nM. Still for that read-out and setting: the result for `NC(=O)c1cccnc1O[C@H]1CC2(C[C@H](NC(=O)c3ccccc3-c3nc4ccccc4[nH]3)C2)C1` (stereo partly drawn) [Example 140, 2-(((aR)-6-(2-(1H-benzo[d]imidazol-2-yl)benamido)spiro [3.3]heptan-2-yl)oxy) nicotinamide, trifluoroacetate] reads 250 to 2500 nM; that for `CN(C)CCCc1ccc(C(N)=O)c(OC2CC3(CC(NC(=O)c4cnn5cc(OCC(C)(C)O)ccc45)C3)C2)c1` (stereo not shown) [Example 262, N-(6-(2-carbamoyl-5-(3-(dimethylamino)propyl)phenoxy)spiro[3.3]heptan-2-yl)-6-(2-hydroxy-2-methylpropoxy)pyrazolo[1,5-a]pyridine-3-carboxamide], 5 to 50 nM; that for `[H][C@]1(Oc2ncccc2C(N)=O)C[C@@]2(C[C@H](NC(=O)c3cc(-c4cnn(C(F)F)c4)cc(S(C)(=O)=O)c3)C2)C1` (stereo partly shown) [Example 51], 5 to 50 nM. Compound `NC(=O)c1ccccc1O[C@H]1CC2(C[C@H](NC(=O)c3cnn4cc(OCCC(F)(F)F)ccc34)C2)C1` (stereo partly drawn) [Example 33, N-[(aR)-6-(2-carbamoylphenoxy)spiro [3.3]heptan-2-yl]-6-(3,3,3-trifluoropropoxy) pyrazolo[1,5-a]pyridine-3-carboxamide] returned an IC50 of less than 5 nM. Same read-out and setting: the result for `CC(C)(O)COc1ccc2c(C(=O)NC3CC4(C3)CC(Oc3cc(-c5cccc(OCCCN)c5)ccc3C(N)=O)C4)cnn2c1` (stereo not shown) [Example 288, N-(6-((3′-(3-aminopropoxy)-4-carbamoyl-[1,1′-biphenyl]-3-yl)oxy)spiro[3.3]heptan-2-yl)-6-(2-hydroxy-2-methylpropoxy)pyrazolo[1,5-a]pyridine-3-carboxamide] reads 5 to 50 nM. `NC(=O)c1cccnc1O[C@H]1CC2(C[C@H](NC(=O)c3ccc4c(c3)S(=O)(=O)NC4=O)C2)C1` (stereo partly drawn) [Example 149, N-((aR)-6-((3-carbamoylpyridin-2-yl)oxy)spiro[3.3]heptan-2-yl)-3-oxo-2,3-dihydrobenzo[d] isothiazole-6-carboxamide 1,1-dioxide, trifluoroacetate] displayed an IC50 of 50 to 250 nM. Still for that read-out and setting: the result for `CNC(=O)c1ccc(-c2ncc(C(=O)NC3CC4(C3)CC(Oc3ncccc3C(N)=O)C4)s2)cc1F` [Example 419, N-((aR)-6-((3-carbamoylpyridin-2-yl)oxy)spiro[3.3]heptan-2-yl)-2-(3-fluoro-4-(methylcarbamoyl)phenyl)thiazole-5-carboxamide, TFA] reads 50 to 250 nM. Compound `COCCOCCn1nc(C(=O)N[C@H]2CC3(C2)C[C@H](Oc2ncccc2C(N)=O)C3)c2ccccc21` (stereo partly drawn) [Example 78, N-((aR)-6-((3-carbamoylpyridin-2-yl)oxy)spiro[3.3]heptan-2-yl)-1-(2-(2-methoxy-ethoxy)ethyl)-1H-indazole-3-carboxamide, trifluoroacetate] showed an IC50 of 50 to 250 nM.

With `CCCNC(=O)c1cc(F)cc(-c2ccc(C(N)=O)c(OC3CC4(CC(NC(=O)c5cnn6cc(OCC(C)(C)O)ccc56)C4)C3)c2)c1` (stereo not shown) [Example 251, 5-fluoro-3′-((6-(6-(2-hydroxy-2-methylpropoxy)pyrazolo[1,5-a]pyridine-3-carboxamido)spiro[3.3]heptan-2-yl)oxy)-N3-propyl-[1,1′-biphenyl]-3,4′-dicarboxamide], the 50% inhibitory concentration (IC50) is 5 to 50 nM. Take `NC(=O)c1cccnc1OC1CC2(CC(NC(=O)c3cnn(-c4cccc(Cl)c4)c3)C2)C1` (stereo not shown) [Example 394]: the half-inhibitory concentration (IC50) was 5 to 50 nM. Still for that read-out and setting: the result for `CC(F)(F)COc1ccc2c(C(=O)N[C@H]3CC4(C3)C[C@H](Oc3ncccc3C(N)=O)C4)cnn2c1` (stereo partly drawn) [Example 308, N-((aR)-6-((3-carbamoylpyridin-2-yl)oxy)spiro[3.3]heptan-2-yl)-6-(2,2-difluoropropoxy)pyrazolo[1,5-a]pyridine-3-carboxamide] reads less than 5 nM; that for `CC(C)(O)COc1ccc2c(C(=O)NC3CC4(C3)CC(Oc3cc(-c5ccc(S(C)(=O)=O)cc5)ccc3C(N)=O)C4)cnn2c1` (stereo not shown) [Example 286, N-(6-((4-carbamoyl-4′-(methylsulfonyl)-[1,1′-biphenyl]-3-yl)oxy)spiro[3.3]heptan-2-yl)-6-(2-hydroxy-2-methylpropoxy)pyrazolo[1,5-a]pyridine-3-carboxamide], 5 to 50 nM.

Take `NC(=O)c1cccnc1O[C@H]1CC2(C[C@H](NC(=O)c3nn(CC(F)F)c4cc(F)ccc34)C2)C1` (stereo partly drawn) [Example 175, N-((aR)-6-((3-carbamoylpyridin-2-yl)oxy)spiro[3.3]heptan-2-yl)-1-(2,2-difluoroethyl)-6-fluoro-1H-indazole-3-carboxamide, trifluoroacetate]: the IC50 was less than 5 nM. The compound `Cc1nc(-c2ccccn2)sc1C(=O)N[C@H]1CC2(C1)C[C@H](Oc1ncccc1C(N)=O)C2` (stereo partly drawn) [Example 88, N-((aR)-6-((3-carbamoyl-pyridin-2-yl)oxy)spiro[3.3]heptan-2-yl)-4-methyl-2-(pyridin-2-yl)thiazole-5-carboxamide, trifluoroacetate] registered an IC50 of 250 to 2500 nM. Take `N#Cc1ccn2c(C(=O)N[C@H]3CC4(C3)C[C@H](Oc3ncccc3C(N)=O)C4)cnc2c1` (stereo partly drawn) [Example 353, N-((aR)-6-((3-carbamoylpyridin-2-yl)oxy)spiro[3.3]heptan-2-yl)-7-cyanoimidazo[1,2-a]pyridine-3-carboxamide]: the IC50 was 50 to 250 nM. Same read-out and setting: the result for `NC(=O)c1ccccc1OC1CC2(CC(NC(=O)c3cnn4c(C5CC5)c(OCCC(F)(F)F)ccc34)C2)C1` [Example 32, N-[(aR)-6-(2-carbamoylphenoxy)spiro [3.3]heptan-2-yl]-7-cyclopropyl-6-(3,3,3-trifluoropropoxy)pyrazolo [1,5-a]pyridine-3-carboxamide] reads less than 5 nM.

The same test, now with this note: read-out: ROCK2 Activity (ROCK2 IC50); 5 μM ATP, 1.5 μM peptide substrate, pH 7.5.
For `CC(C)(O)COc1ccc2c(C(=O)NC3CC4(C3)CC(Oc3ncccc3C(N)=O)C4)nc(C(F)(F)F)n2c1` [Example 434, N-((aR)-6-((3-carbamoylpyridin-2-yl)oxy)spiro[3.3]heptan-2-yl)-6-(2-hydroxy-2-methylpropoxy)-3-(trifluoromethyl)imidazo[1,5-a]pyridine-1-carboxamide], the IC50 is 5 to 50 nM.

Consider “N-((aR)- 6-((3- carbamoylpyridin- 2- yl)oxy)spiro[3.3] heptan-2-yl)- 2-(3,3-difluoroazetidin- 1-yl)- 4-methylthiazole- 5- carboxamide, trifluoroacetate [Example 90]”, for which the IC50 lay within 50 to 250 nM. On to `CN1CCN(c2cc(C(=O)NC3CC4(C3)CC(Oc3ncccc3C(N)=O)C4)cc(C(F)(F)F)c2)CC1` [Example 422, 2-(((aR)-6-(3-(4-methylpiperazin-1-yl)-5-(trifluoromethyl)benzamido)spiro[3.3]heptan-2-yl)oxy)nicotinamide], for which the 50% inhibitory concentration (IC50) lay within 5 to 50 nM.
